Molecular target: T1, human β3 adrenergic receptor (Homo sapiens, UniProt P13945)
T1 construct: expressed in transfected cells; host or cells: Chinese hamster ovary (CHO) cells, stably transfected
Assay: Beta-3 agonist in vitro functional assay: cAMP production (LANCE TR-FRET) in CHO cells stably transfected with the cloned β3 receptor
Format: cell-based
Conditions: Table 10; Beta-3 agonist in vitro functional assay; read-out: Human β3 agonist functional activity
Method in brief: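 CHO cells stably expressing the cloned receptor, in HEPES-buffered HBSS with BSA and 0.6 mM IBMX, 6,000 cells/well, exposed to compound for 30 min at RT. cAMP read by LANCE TR-FRET against a cAMP standard curve. Isoproterenol defines maximal stimulation.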

T1 sequence (P13945 whole entry): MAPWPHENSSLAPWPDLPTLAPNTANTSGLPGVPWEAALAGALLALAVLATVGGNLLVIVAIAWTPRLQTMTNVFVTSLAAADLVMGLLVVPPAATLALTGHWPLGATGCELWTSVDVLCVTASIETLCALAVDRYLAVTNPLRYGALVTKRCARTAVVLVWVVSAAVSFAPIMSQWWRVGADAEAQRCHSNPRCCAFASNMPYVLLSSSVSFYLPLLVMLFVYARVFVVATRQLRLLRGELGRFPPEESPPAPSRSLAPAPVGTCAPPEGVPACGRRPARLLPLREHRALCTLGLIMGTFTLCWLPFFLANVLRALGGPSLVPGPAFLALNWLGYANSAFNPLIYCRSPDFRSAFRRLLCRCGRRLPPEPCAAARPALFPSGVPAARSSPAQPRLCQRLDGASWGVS

Row | Structure (SMILES) | EC50 [nM]
1 | CC(C(=O)NCc1nnc2n1CCC2)N1CCN(C(=O)c2ccc(C[C@@H]3CC[C@H]([C@H](O)c4ccccc4)N3)cc2)CC1 (stereo partly shown) [Example 466] | 100 to 999
2 | CC(C(=O)NCc1cn2ccsc2n1)N1CCN(C(=O)c2ccc(C[C@@H]3CC[C@H]([C@H](O)c4ccccc4)N3)cc2)CC1 (stereo partly shown) [Example 467] | 10 to 99.9
3 | CC(C(=O)NC1CCOCC1)N1CCN(C(=O)c2ccc(C[C@@H]3CC[C@H]([C@H](O)c4ccccc4)N3)cc2)CC1 (stereo partly shown) [Example 468] | 100 to 999
4 | CC(C(=O)NC1CCS(=O)(=O)CC1)N1CCN(C(=O)c2ccc(C[C@@H]3CC[C@H]([C@H](O)c4ccccc4)N3)cc2)CC1 (stereo partly shown) [Example 469] | 10 to 99.9
5 | CC(C(=O)NC1(c2ccccn2)CC1)N1CCN(C(=O)c2ccc(C[C@@H]3CC[C@H]([C@H](O)c4ccccc4)N3)cc2)CC1 (stereo partly shown) [Example 470] | 10 to 99.9
6 | CC(C(=O)N1CCC1)N1CCN(C(=O)c2ccc(C[C@@H]3CC[C@H]([C@H](O)c4ccccc4)N3)cc2)CC1 (stereo partly shown) [Example 471] | 1 to 9.9
7 | CC(C(=O)N1CC(F)C1)N1CCN(C(=O)c2ccc(C[C@@H]3CC[C@H]([C@H](O)c4ccccc4)N3)cc2)CC1 (stereo partly shown) [Example 472] | 1 to 9.9
8 | COC1CN(C(=O)C(C)N2CCN(C(=O)c3ccc(C[C@@H]4CC[C@H]([C@H](O)c5ccccc5)N4)cc3)CC2)C1 (stereo partly shown) [Example 473] | 10 to 99.9
9 | CC(C(=O)N1CC(O)(c2ccccc2)C1)N1CCN(C(=O)c2ccc(C[C@@H]3CC[C@H]([C@H](O)c4ccccc4)N3)cc2)CC1 (stereo partly shown) [Example 474] | 1 to 9.9
10 | CC(C(=O)N1CC[C@H](F)C1)N1CCN(C(=O)c2ccc(C[C@@H]3CC[C@H]([C@H](O)c4ccccc4)N3)cc2)CC1 (stereo partly shown) [Example 475] | 1 to 9.9
11 | CC(C(=O)N1C[C@H](F)[C@@H](F)C1)N1CCN(C(=O)c2ccc(C[C@@H]3CC[C@H]([C@H](O)c4ccccc4)N3)cc2)CC1 (stereo partly shown) [Example 476] | 10 to 99.9
12 | CC(C(=O)N1CCC(O)C1)N1CCN(C(=O)c2ccc(C[C@@H]3CC[C@H]([C@H](O)c4ccccc4)N3)cc2)CC1 (stereo partly shown) [Example 477] | 100 to 999
13 | CC(C(=O)N1CCC[C@H]1C(N)=O)N1CCN(C(=O)c2ccc(C[C@@H]3CC[C@H]([C@H](O)c4ccccc4)N3)cc2)CC1 (stereo partly shown) [Example 478] | 100 to 999
14 | CC(C(=O)N1C(C)CCC1C)N1CCN(C(=O)c2ccc(C[C@@H]3CC[C@H]([C@H](O)c4ccccc4)N3)cc2)CC1 (stereo partly shown) [Example 479] | 10 to 99.9
15 | CC(C(=O)N1CCC[C@@H]1C)N1CCN(C(=O)c2ccc(C[C@@H]3CC[C@H]([C@H](O)c4ccccc4)N3)cc2)CC1 (stereo partly shown) [Example 480] | 10 to 99.9
16 | CC(C(=O)N1CCSC1)N1CCN(C(=O)c2ccc(C[C@@H]3CC[C@H]([C@H](O)c4ccccc4)N3)cc2)CC1 (stereo partly shown) [Example 481] | 100 to 999
17 | CC(C(=O)N1Cc2cccnc2C1)N1CCN(C(=O)c2ccc(C[C@@H]3CC[C@H]([C@H](O)c4ccccc4)N3)cc2)CC1 (stereo partly shown) [Example 482] | 10 to 99.9
18 | CC(C(=O)N1Cc2cncnc2C1)N1CCN(C(=O)c2ccc(C[C@@H]3CC[C@H]([C@H](O)c4ccccc4)N3)cc2)CC1 (stereo partly shown) [Example 483] | 100 to 999
19 | CC(C(=O)N1CCCCC1)N1CCN(C(=O)c2ccc(C[C@@H]3CC[C@H]([C@H](O)c4ccccc4)N3)cc2)CC1 (stereo partly shown) [Example 484] | 10 to 99.9
20 | CC(C(=O)N1CCCCC1C)N1CCN(C(=O)c2ccc(C[C@@H]3CC[C@H]([C@H](O)c4ccccc4)N3)cc2)CC1 (stereo partly shown) [Example 485] | 10 to 99.9

Row | Structure (SMILES) | EC50 [nM]
21 | CC1CCCN(C(=O)C(C)N2CCN(C(=O)c3ccc(C[C@@H]4CC[C@H]([C@H](O)c5ccccc5)N4)cc3)CC2)C1 (stereo partly shown) [Example 486] | 10 to 99.9
22 | CC(C(=O)N1CCCC(C(F)(F)F)C1)N1CCN(C(=O)c2ccc(C[C@@H]3CC[C@H]([C@H](O)c4ccccc4)N3)cc2)CC1 (stereo partly shown) [Example 487] | 1 to 9.9
23 | CC1CCN(C(=O)C(C)N2CCN(C(=O)c3ccc(C[C@@H]4CC[C@H]([C@H](O)c5ccccc5)N4)cc3)CC2)CC1 (stereo partly shown) [Example 488] | 100 to 999
24 | CC(C(=O)N1CCC(O)CC1)N1CCN(C(=O)c2ccc(C[C@@H]3CC[C@H]([C@H](O)c4ccccc4)N3)cc2)CC1 (stereo partly shown) [Example 489] | 10 to 99.9
25 | CC(C(=O)N1CCC(CO)CC1)N1CCN(C(=O)c2ccc(C[C@@H]3CC[C@H]([C@H](O)c4ccccc4)N3)cc2)CC1 (stereo partly shown) [Example 490] | 10 to 99.9
26 | CC(C(=O)N1CCC(F)CC1)N1CCN(C(=O)c2ccc(C[C@@H]3CC[C@H]([C@H](O)c4ccccc4)N3)cc2)CC1 (stereo partly shown) [Example 491] | 10 to 99.9
27 | CC(C(=O)N1CC=CCC1)N1CCN(C(=O)c2ccc(C[C@@H]3CC[C@H]([C@H](O)c4ccccc4)N3)cc2)CC1 (stereo partly shown) [Example 492] | 10 to 99.9
28 | CC(C(=O)N1CCCCC12CC2)N1CCN(C(=O)c2ccc(C[C@@H]3CC[C@H]([C@H](O)c4ccccc4)N3)cc2)CC1 (stereo partly shown) [Example 493] | 10 to 99.9
29 | CC(C(=O)N1CCC(C2CC2)CC1)N1CCN(C(=O)c2ccc(C[C@@H]3CC[C@H]([C@H](O)c4ccccc4)N3)cc2)CC1 (stereo partly shown) [Example 494] | 10 to 99.9
30 | CC(C(=O)N1CCCC2(CCO2)C1)N1CCN(C(=O)c2ccc(C[C@@H]3CC[C@H]([C@H](O)c4ccccc4)N3)cc2)CC1 (stereo partly shown) [Example 495] | 10 to 99.9
31 | CC(C(=O)N1CCCC2(CCC2)C1)N1CCN(C(=O)c2ccc(C[C@@H]3CC[C@H]([C@H](O)c4ccccc4)N3)cc2)CC1 (stereo partly shown) [Example 496] | 10 to 99.9
32 | CC(C(=O)N1CCCC2(CCCO2)C1)N1CCN(C(=O)c2ccc(C[C@@H]3CC[C@H]([C@H](O)c4ccccc4)N3)cc2)CC1 (stereo partly shown) [Example 497] | 10 to 99.9
33 | CC(C(=O)N1CCCC2(CCCCO2)C1)N1CCN(C(=O)c2ccc(C[C@@H]3CC[C@H]([C@H](O)c4ccccc4)N3)cc2)CC1 (stereo partly shown) [Example 498] | 10 to 99.9
34 | CC(C(=O)N1CCOCC1)N1CCN(C(=O)c2ccc(C[C@@H]3CC[C@H]([C@H](O)c4ccccc4)N3)cc2)CC1 (stereo partly shown) [Example 499] | 100 to 999
35 | CC(C(=O)N1C[C@@H]2C[C@H]1CO2)N1CCN(C(=O)c2ccc(C[C@@H]3CC[C@H]([C@H](O)c4ccccc4)N3)cc2)CC1 (stereo partly shown) [Example 500] | 10 to 99.9
36 | CC(C(=O)N1[C@H]2CC[C@@H]1CC2)N1CCN(C(=O)c2ccc(C[C@@H]3CC[C@H]([C@H](O)c4ccccc4)N3)cc2)CC1 (stereo partly shown) [Example 501] | 100 to 999
37 | CC(C(=O)N1CCn2ccnc2C1)N1CCN(C(=O)c2ccc(C[C@@H]3CC[C@H]([C@H](O)c4ccccc4)N3)cc2)CC1 (stereo partly shown) [Example 502] | 10 to 99.9
38 | CC(C(=O)N1CCc2oncc2C1)N1CCN(C(=O)c2ccc(C[C@@H]3CC[C@H]([C@H](O)c4ccccc4)N3)cc2)CC1 (stereo partly shown) [Example 503] | 10 to 99.9
39 | Cc1nc2c(o1)CN(C(=O)C(C)N1CCN(C(=O)c3ccc(C[C@@H]4CC[C@H]([C@H](O)c5ccccc5)N4)cc3)CC1)CC2 (stereo partly shown) [Example 504] | 1 to 9.9
40 | CC(C(=O)N1CCc2nc(C3CC3)sc2C1)N1CCN(C(=O)c2ccc(C[C@@H]3CC[C@H]([C@H](O)c4ccccc4)N3)cc2)CC1 (stereo partly shown) [Example 505] | < 1

Row | Structure (SMILES) | EC50 [nM]
41 | CC(C(=O)N1CCc2ccncc2C1)N1CCN(C(=O)c2ccc(C[C@@H]3CC[C@H]([C@H](O)c4ccccc4)N3)cc2)CC1 (stereo partly shown) [Example 506] | 10 to 99.9
42 | CC(C(=O)N1CCc2ncccc2C1)N1CCN(C(=O)c2ccc(C[C@@H]3CC[C@H]([C@H](O)c4ccccc4)N3)cc2)CC1 (stereo partly shown) [Example 507] | 10 to 99.9
43 | CC(C(=O)N1CCc2cnccc2C1)N1CCN(C(=O)c2ccc(C[C@@H]3CC[C@H]([C@H](O)c4ccccc4)N3)cc2)CC1 (stereo partly shown) [Example 508] | 10 to 99.9
44 | CC(C(=O)N1CCc2ccc(F)cc2C1)N1CCN(C(=O)c2ccc(C[C@@H]3CC[C@H]([C@H](O)c4ccccc4)N3)cc2)CC1 (stereo partly shown) [Example 509] | 1 to 9.9
45 | CC(C(=O)N1CCc2ccc(Cl)cc2C1)N1CCN(C(=O)c2ccc(C[C@@H]3CC[C@H]([C@H](O)c4ccccc4)N3)cc2)CC1 (stereo partly shown) [Example 510] | 1 to 9.9
46 | CC(C(=O)N1CCCCCC1)N1CCN(C(=O)c2ccc(C[C@@H]3CC[C@H]([C@H](O)c4ccccc4)N3)cc2)CC1 (stereo partly shown) [Example 511] | 100 to 999
47 | Cc1nonc1CN(C)C(=O)C(C)N1CCN(C(=O)c2ccc(C[C@@H]3CC[C@H]([C@H](O)c4ccccc4)N3)cc2)CC1 (stereo partly shown) [Example 512] | 10 to 99.9
48 | CC(C(=O)N(C)C)N1CCN(C(=O)c2ccc(C[C@@H]3CC[C@H]([C@H](O)c4ccccc4)N3)cc2)CC1 (stereo partly shown) [Example 513] | 1 to 9.9
49 | CCCCN(C)C(=O)C(C)N1CCN(C(=O)c2ccc(C[C@@H]3CC[C@H]([C@H](O)c4ccccc4)N3)cc2)CC1 (stereo partly shown) [Example 514] | 10 to 99.9
50 | CCN(C(=O)C(C)N1CCN(C(=O)c2ccc(C[C@@H]3CC[C@H]([C@H](O)c4ccccc4)N3)cc2)CC1)C(C)C (stereo partly shown) [Example 515] | 10 to 99.9
51 | CCN(CC)C(=O)C(C)N1CCN(C(=O)c2ccc(C[C@@H]3CC[C@H]([C@H](O)c4ccccc4)N3)cc2)CC1 (stereo partly shown) [Example 516] | 100 to 999
52 | CC(C(=O)N(C)C(C)(C)C)N1CCN(C(=O)c2ccc(C[C@@H]3CC[C@H]([C@H](O)c4ccccc4)N3)cc2)CC1 (stereo partly shown) [Example 517] | 100 to 999
53 | CC(C)CN(C)C(=O)C(C)N1CCN(C(=O)c2ccc(C[C@@H]3CC[C@H]([C@H](O)c4ccccc4)N3)cc2)CC1 (stereo partly shown) [Example 518] | 100 to 999
54 | CC(C(=O)N(C)CCO)N1CCN(C(=O)c2ccc(C[C@@H]3CC[C@H]([C@H](O)c4ccccc4)N3)cc2)CC1 (stereo partly shown) [Example 519] | 100 to 999
55 | CCN(CCO)C(=O)C(C)N1CCN(C(=O)c2ccc(C[C@@H]3CC[C@H]([C@H](O)c4ccccc4)N3)cc2)CC1 (stereo partly shown) [Example 520] | 10 to 99.9
56 | CC(C(=O)N(C)CCC#N)N1CCN(C(=O)c2ccc(C[C@@H]3CC[C@H]([C@H](O)c4ccccc4)N3)cc2)CC1 (stereo partly shown) [Example 521] | 10 to 99.9
57 | CC(C(=O)N(C1CC1)C1CC1)N1CCN(C(=O)c2ccc(C[C@@H]3CC[C@H]([C@H](O)c4ccccc4)N3)cc2)CC1 (stereo partly shown) [Example 522] | 10 to 99.9
58 | CC(C(=O)N(C)C(C1CC1)C1CC1)N1CCN(C(=O)c2ccc(C[C@@H]3CC[C@H]([C@H](O)c4ccccc4)N3)cc2)CC1 (stereo partly shown) [Example 523] | 10 to 99.9
